For 38 compounds, inhibition in vivo and IC50 results are on record in patent US4970210A, “Triazinone lipoxygenase compounds” (Abbott Laboratories, priority 1988, dated 1990).

As usually defined, the inhibition in vivo is the relative decrease from the control value, in per cent. Read a low inhibition in vivo as little suppression.

One test relates to leukotriene biosynthesis. Kind of test: In vivo inhibition of leukotriene biosynthesis after oral administration, rat peritoneal anaphylaxis model. The note with it: 0.25 h, 200 micro mol/kg oral dose, one hour prior to antigen challenge, peritoneal fluid 15 minutes after challenge, vs mean of control group. As to the method: Inhibition of the biosynthesis of leukotrienes in vivo after oral administration of compound was determined using a rat peritoneal anaphylaxis model in a similiar manner as that described by Young and coworkers (Young, P. R.; Dyer, R. D.; Carter, G. W. Fed. Proc., Fed. Am Soc.Exp. Biol. 1985, 44 1185). In this model rats were injected intraperitoneally (ip) with rabbit antibody to bovine serum albumin (BSA) and three hours later injected ip with BSA to induce an antigen-antibody response. Rats were sacrificed 15 minutes after this challenge and the peritoneal fluids were collected and analyzed for leukotriene levels. Test compounds were administered by gauge one hour prior to the antigen challenge. Percent inhibition values were determined by comparing the treatment group to the mean of the control group.
For `CC1CN(c2ccccc2)NC(=O)N1` (racemic) [Example 81, D,L-5-methyl-1-phenyl-2H,4H-tetrahydro-1,2,4-triazin-3-one], the inhibition in vivo at 200 µmol/kg is 84%.
On the same count and under the same terms, under `O=C1NCCN(c2ccccc2)N1` [Example 68, 1-(phenyl)-2 H,4 H-tetrahydro-1,2,4-triazin-3-one] stands 85%; under `Cc1cccc(N2CCNC(=O)N2)c1` [Example 70, 1-(3'-methylphenyl)-2 H,4 H-tetrahydro-1,2,4-triazin-3-one], 66%.
Same read-out and setting: the value for `O=C1NCCN(c2cccc(Br)c2)N1` [Example 73, 1-(3'-bromophenyl)-2 H,4 H-tetrahydro-1,2,4-triazin-3-one] was 46%; that for `CCc1cccc(N2CCNC(=O)N2)c1` [Example 74, 1-(3'-ethylphenyl)-2 H,4 H-tetrahydro-1,2,4-triazin-3-one] was 58%; that for `CSc1cccc(N2CCNC(=O)N2)c1` [Example 75, 1-(3'-methylthiophenyl)-2 H,4 H-tetrahydro-1,2,4-triazin-3-one] was 73%.
For `O=C1NCCN(c2cccc(Cl)c2)N1` [Example 78, 1-(3'-chlorophenyl)-2 H,4 H, tetrahydro-1,2,4-triazin-3-one], the inhibition in vivo at 200 µmol/kg stood at 80%.
The same measure, in the same setting: the value for `CC(=O)N1CCN(c2cccc(Cl)c2)NC1=O` [Example 111, 4-Acetyl-1-(3-chlorophenyl)-2H,4H-tetrahydro-1,2,4-triazin-3-one] was 74%.

Another test addresses T1, 5-lipoxygenase (Rattus norvegicus, UniProt P12527).
T1 construct: 20,000×g supernatant from homogenized RBL-1 cells; endogenous in cells; host or cells: RBL-1 cells (20,000×g supernatant of homogenate)
T1 sequence (P12527 1-673): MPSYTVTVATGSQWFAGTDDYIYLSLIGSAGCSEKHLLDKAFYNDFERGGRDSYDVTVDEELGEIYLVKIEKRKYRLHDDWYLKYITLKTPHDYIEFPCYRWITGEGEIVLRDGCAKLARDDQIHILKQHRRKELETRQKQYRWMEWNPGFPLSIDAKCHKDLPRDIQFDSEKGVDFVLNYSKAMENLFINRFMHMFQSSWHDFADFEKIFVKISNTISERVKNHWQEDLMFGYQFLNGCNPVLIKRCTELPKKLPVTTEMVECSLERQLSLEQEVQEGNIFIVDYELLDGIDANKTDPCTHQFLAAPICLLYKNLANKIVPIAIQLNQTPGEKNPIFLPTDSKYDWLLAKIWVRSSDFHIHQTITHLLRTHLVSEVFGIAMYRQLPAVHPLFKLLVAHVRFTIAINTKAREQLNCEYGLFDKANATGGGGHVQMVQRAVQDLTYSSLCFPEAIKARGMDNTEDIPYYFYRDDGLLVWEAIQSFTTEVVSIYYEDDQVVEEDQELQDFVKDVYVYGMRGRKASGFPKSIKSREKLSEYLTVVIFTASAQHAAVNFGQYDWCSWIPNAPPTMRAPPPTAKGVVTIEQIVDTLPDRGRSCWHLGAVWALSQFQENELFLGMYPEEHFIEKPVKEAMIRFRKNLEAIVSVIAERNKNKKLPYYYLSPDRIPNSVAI
The test is described as follows: Inhibition of 5-lipoxygenase (20,000×g supernatant from homogenized RBL-1 cells). The test is classed as biochemical. The following applies: in vitro, read-out: IC50 (concentration of compound producing 50% enzyme inhibition). The procedure:
Inhibition of 5-lipoxygenase activity was determined using the 20,000×g supernatant from homogenized RBL-1 cells in a similiar manner as that described by Dyer and coworkers (Dyer, R. D.; Haviv., F.; Hanel, A. M.; Bornemeier, D. A.; Carter, G. W. Fed. Proc.,Fed.Am.Soc. Exp. Biol. 1984, 43,1462a). IC50 values (concentration of compound producing 50% enzyme inhibition) were calculated by linear regression analysis of percentage inhibition versus log inhibitor concentration plots.
Take `CC(C)C1CN(c2ccccc2)NC(=O)N1` (racemic) [Example 82, D,L-5-i-propyl-1-phenyl-2H,4H-tetrahydro-1,2,4-triazin-3-one]: the IC50 was determined as 7 µM.
`CCCCC1CN(c2ccccc2)NC(=O)N1` (racemic) [Example 83, D,L-5-n-butyl-1-phenyl-2H 4H-tetrahydro-1,2,4-triazin-3-one]: the IC50 was 2 µM.
Same read-out and setting: under `CC1CN(c2cccc(Cl)c2)NC(=O)N1` (racemic) [Example 85, D,L-5-methyl-1-(3-chlorophenyl)-2H,4H-tetrahydro-1,2,4-triazin-3-one] stands 3 µM; under `CCC1CN(c2ccccc2)NC(=O)N1` (racemic) [Example 86, D,L-5-ethyl-1-phenyl-2H,4H-tetrahydro-1,2,4-triazin-3-one], 7 µM; under `N#Cc1cccc(N2CCCC(=O)N2)c1` [Example 1, 1-(3'-cyanophenyl)-2H-tetrahydropyridazin-3-one], 11 µM.
As for `COc1cccc(N2CCCC(=O)N2)c1` [Example 3, 1-(3'-methoxyphenyl)-2H-tetrahydropyridazin-3-one], the IC50 is 6 µM.
Still for that read-out and setting: under `O=C1CCCN(c2ccc(Oc3ccccc3)cc2)N1` [Example 6, 1-(4'-phenoxyphenyl)-2H-tetrahydropyridazin-3-one] stands 2 µM; under `O=C1CCCN(c2cccc(C(F)(F)F)c2)N1` [Example 8, 1-(3'-trifluoromethylphenyl)-2H-tetrahydropyridazin-3-one], 5 µM.
On to `CCc1cccc(N2CCCC(=O)N2)c1` [Example 10, 1-(3'-ethylphenyl)-2H-tetrahydropyridazin-3-one], for which the IC50 came out at 3 µM.
Still for that read-out and setting: under `CCCCCCCCc1ccc(N2CCCC(=O)N2)cc1` [Example 15, 1-(4'-octylphenyl)-2H-tetrahydropyridazin-3-one] stands 6 µM; under `CCOC(=O)c1cccc(N2CCCC(=O)N2)c1` [Example 16, 1-(3'-ethoxycarbonylphenyl)-2H-tetrahydropyridazin-3-one], 5 µM.
For `Cc1cc(C)cc(N2CCCC(=O)N2)c1` [Example 24, 1-(3',5'-dimethylphenyl)-2H-tetrahydropyridazin-3-one], the IC50 stood at 3 µM.
The same measure, in the same setting: under `O=C1CCCN(c2cc(Cl)cc(Cl)c2)N1` [Example 26, 1-(3',5'-dichlorophenyl)-2H-tetrahydropyridazin-3-one] stands 1 µM; under `CCCCC1CCN(c2ccccc2)NC1=O` (stereo not drawn) [Example 38, 1-phenyl-4-butyl-2H-tetrahydropyridazin-3-one], 0.6 µM; under `CCCCC1CC(=O)NN(c2ccccc2)C1` (stereo not drawn) [Example 40, 1-phenyl-5-butyl-2H-tetrahydropyridazin-3-one], 0.5 µM.
The same measure, in the same setting: under `O=C1CCCN(c2cccc(Cl)c2)N1` [Example 46, 1-(3'-chlorophenyl)-2H-tetrahydropyridazin-3-one] stands 2.5 µM.
The same measure, in the same setting: under `O=C1CCCN(c2ccccc2F)N1` [Example 51, 1-(2'-fluorophenyl)-2H-tetrahydropyridazin-3-one] stands 10 µM; under `O=C1NCCN(c2ccccc2)N1` [Example 68, 1-(phenyl)-2 H,4 H-tetrahydro-1,2,4-triazin-3-one], 21 µM.
On to `Cc1cccc(N2CCNC(=O)N2)c1` [Example 70, 1-(3'-methylphenyl)-2 H,4 H-tetrahydro-1,2,4-triazin-3-one], for which the IC50 is 15 µM.
Same read-out and setting: the value for `O=C1NCCN(c2cccc(Br)c2)N1` [Example 73, 1-(3'-bromophenyl)-2 H,4 H-tetrahydro-1,2,4-triazin-3-one] was 5 µM; that for `CCc1cccc(N2CCNC(=O)N2)c1` [Example 74, 1-(3'-ethylphenyl)-2 H,4 H-tetrahydro-1,2,4-triazin-3-one] was 13 µM.
On to `CSc1cccc(N2CCNC(=O)N2)c1` [Example 75, 1-(3'-methylthiophenyl)-2 H,4 H-tetrahydro-1,2,4-triazin-3-one], for which the IC50 turned out to be 14 µM.
Still for that read-out and setting: the value for `O=C1NCCN(c2cccc(C(F)(F)F)c2)N1` [Example 76, 1-(3'-trifluoromethylphenyl)-2 H,4 H-tetrahydro-1,2,4-triazin-3-one] was 17 µM; that for `O=C1NCCN(c2cccc(Cl)c2)N1` [Example 78, 1-(3'-chlorophenyl)-2 H,4 H, tetrahydro-1,2,4-triazin-3-one] was 6 µM.
Consider `O=C1NCCN(c2cccc(OCc3ccccc3)c2)N1` [Example 79, 1-(3'-benzyloxyphenyl)-2 H,4 H-tetrahydro-1,2,4-triazin-3-one], for which the IC50 stood at 1 µM.
As for `Cc1cc(C)cc(N2CCNC(=O)N2)c1` [Example 80, 1-(3',5'-dimethylphenyl)-2 H,4 H-tetrahydro-1,2,4-triazin-3-one], the IC50 is 12 µM.
Same read-out and setting: under `CC1(C)CN(c2ccccc2)NC(=O)N1` [Example 87, 5,5-dimethyl-1-phenyl-2H,4H-tetrahydro-1,2,4-triazin-3-one] stands 7 µM; under `O=C1NCCN(c2cccc(F)c2)N1` [Example 88, 1-(3-fluorophenyl)-2H,4H-tetrahydro-1,2,4-triazin-3-one], 19 µM; under `O=C1NCCN(c2ccccn2)N1` [Example 90, 1-(2-pyridyl)-2H,4H-tetrahydro-1,2,4-triazin-3-one], 26 µM.
The same measure, in the same setting: under `O=C1NN(c2ccccc2)CCN1Cc1ccccc1` [Example 99, 4-Benzyl-1-phenyl-2H,4H-tetrahydro-1,2,4-triazin-3-one] stands 8 µM; under `S=C1NCCN(c2ccccc2)N1` [Example 102, 1-Phenyl-2H,4H-tetrahydro-1,2,4-triazin-3-thione], 17 µM; under `S=C1NCCN(c2cccc(Cl)c2)N1` [Example 103, 1-(3-Chlorophenyl)-2H,4H-tetrahydro-1,2,4-triazin-3-thione], 5 µM.
Still for that read-out and setting: the value for `Cc1cccc(N2CCCC(=S)N2)c1` [Example 106, 1-(3'-methylphenyl)-2H-tetrahydro-pyridazin-3-thione] was 1 µM.
Consider `CC(=O)N1CCN(c2ccccc2)NC1=O` [Example 107, 4-Acetyl-1-phenyl-2H,4H-tetrahydro-1,2,4-triazin-3-one], for which the IC50 was 3 µM.
Still for that read-out and setting: under `CC(C)C(=O)N1CCN(c2ccccc2)NC1=O` [Example 109, 4-Isobutyryl-1-phenyl-2H,4H-tetrahydro-1,2,4-triazin-3-one] stands 1 µM; under `CC(=O)N1CCN(c2cccc(Cl)c2)NC1=O` [Example 111, 4-Acetyl-1-(3-chlorophenyl)-2H,4H-tetrahydro-1,2,4-triazin-3-one], 1 µM.
Consider `O=C1CCCN(c2ccccc2)N1COCc1ccccc1` [Example 113, 1-phenyl-2-benzyloxymethyl-2 H-tetrahydropyridazin-3-one], for which the IC50 was 71 µM.
